Test results from US20020143062A1, “Method to incorporate N-(4-hydroxyphenyl) retinamide in liposomes” (Board of Regents, The University of Texas System, priority 2000, published 2002).
Where a name gives a salt, the structure may show the parent alone. Read-outs that look alike come from different tables or passages of the source. Starred links: 1 amine or outer side, 2 acyl side, 3 side chain; linkers in the order of their positions; H or OH if unused. Positions of bridges follow the written chain, without caps; N, C: chain ends. Non-standard residues stand in square brackets, D forms with d. Residues, ends and D or L forms follow the SMILES beside them. Chains are numbered I, II in the order given. Actinocin(9to1) = Cc1c2oc3c(C)ccc(C(=O)[*:1])c3nc-2c(C(=O)[*:2])c(N)c1=O; NMeV = CN[C@H](C(=O)O)C(C)C; Sar = CNCC(=O)O

Tests used:
[1] = cited from earlier work
[2] = cited from earlier work; remark: listed apart in the source
[3] = cited from earlier work; remark: listed apart in the source
[4] = tested on: ER-positive MCF-7 cells; experiment: Growth inhibition, cell count (Table 6); type: cell-based; conditions: alone or with 4HPR 1 μM as labelled, 5 days
Text: Nitric oxide (NO), an important biological second messenger, is known to induce growth inhibition and apoptosis in cells. Nitric oxide (NO) is biosynthesized by isoenzymes called nitric oxide synthases. […]

[5] = tested on: ER-positive MCF-7 cells; experiment: Growth inhibition, cell count (Table 5); type: cell-based; conditions: alone or with 4HPR 1 μM as labelled, 5 days
Text: (§1) Nitric oxide (NO), an important biological second messenger, is known to induce growth inhibition and apoptosis in cells. Nitric oxide (NO) is biosynthesized by isoenzymes called nitric oxide synthases. One such isoenzyme, inducible NOS (iNOS), is present only after cytokine induction, such as interferon-γ (IFN-γ). […] Here, the ability of liposomal 4-HPR and IFN-γ to induce NO production and growth inhibition in breast cancer positive (Table 5) and breast cancer negative (Table 6) cells is examined by nitrite assays and growth inhibition assays, as known to the skilled artisan.

[6] = tested on: ER-positive MCF-7 cells; experiment: NO production, nitrite assay (Tables 5 and 7); type: cell-based; conditions: for increase of iNOS production of NO in the presence of cyclosporin A: both ER positive and ER negative breast cancer cells (Tables 7, 8)
Text: as §1
(§2) It is also known to those skilled in the art that nitric oxide (NO) is a biologic mediator derived from the amino acid L-arginine. A family of enzymes, known as nitric oxide synthase (NOS), act upon L-arginine to oxidize one of the guanidino nitrogens to nitric oxide while citrulline is formed from the remainder of the L-arginine molecule.
(§3) Liposomal 4-HPR in combination with cyclosporin A, increased iNOS production of NO in breast cancer cells (Table 3-5). […] Furthermore, an increase in the production of NO in these cells was not indicated with other retinoids such as CD437 and ATRA.

[7] = tested on: ER-positive MCF-7 cells; experiment: NO production, nitrite assay (Table 6); type: cell-based; conditions: alone or with 4HPR 1 μM as labelled, 5 days
Text: as §1, §2

[8] = tested on: MCF-7/WT; experiment: Cellular proliferation assay, IC50 of retinoids with/without cyclosporin A; type: cell-based
[9] = tested on: MCF-7/ADR; experiment: as above; type: cell-based
[10] = tested on: ER-negative MDA-MB-231 cells; experiment: NO production, nitrite (Table 8); type: cell-based; conditions: cyclosporin A 4 μg/ml; CD437 2 μM; ATRA 1 μM; alone or combined as labelled; 3 days
Text: as §3

[11] = single oral doses of about 0.6 mg/kg to about […]
[12] = without cyclosporin A, read-out: IC50 Without CsA
[13] = cyclosporin A 4 μg/ml, CD437 2 μM, ATRA 1 μM, alone or combined as labelled, 3 days

Question: Which “proportion of patients with a favorable response” value ([1]; multiple myeloma, oral administration) does the source give for N[C@@H](Cc1ccc(N(CCCl)CCCl)cc1)C(=O)O [Melphalan, 4-[bis(2-chloroethyl)amino]-L-phenylalanine] here?
Answer: about one third to one half

Question: What does the source list for CO[C@@]12[C@H](COC(N)=O)C3=C(C(=O)C(C)=C(N)C3=O)N1C[C@@H]1N[C@@H]12 [Mitomycin]?
Answer: time required to reduce the serum concentration by about 50% ([2]; 30 mg bolus injection): 17 min; dose excreted unchanged in the urine ([2]; in vivo): Approximately 10%

Question: What does the source list for O=C(O)CCCc1ccc(N(CCCl)CCCl)cc1 [Chlorambucil, 4-[bis(2-chlorethyl)amino] benzenebutanoic acid]?
Answer: oral / gastrointestinal absorption ([3]; in vivo): rapidly and completely absorbed; terminal half-life of the parent drug [3, 11]: about 1.5 hours; time to peak plasma chlorambucil levels [3, 11]: within one hour

Question: What does the source list for Cc1c2oc3c(C)ccc(C(=O)N[C@@H]4C(=O)N[C@H](C(C)C)C(=O)N5CCC[C@H]5C(=O)N(C)CC(=O)N(C)[C@@H](C(C)C)C(=O)O[C@@H]4C)c3nc-2c(C(=O)N[C@@H]2C(=O)N[C@H](C(C)C)C(=O)N3CCC[C@H]3C(=O)N(C)CC(=O)N(C)[C@@H](C(C)C)C(=O)O[C@@H]2C)c(N)c1=O [Actinomycin D] (I: T[dV]P[Sar][NMeV] / II: T[dV]P[Sar][NMeV]; ester I:1-I:C, II:1-II:C; linker I:N-II:N via Actinocin(9to1))?
Answer: dose excreted intact into the bile ([3]; in vivo): Half of the dose; dose excreted intact into the urine ([3]; in vivo): 10%; half-life ([3]; in vivo): about 36 hours; passage of the blood-brain barrier ([3]; in vivo): does not pass the blood-brain barrier

Question: Which “half-life of active metabolite” value ([3]; in vivo) does the source give for COc1cccc2c1C(=O)c1c(O)c3c(c(O)c1C2=O)C[C@@](O)([C@H](C)O)C[C@@H]3O[C@H]1C[C@H](N)[C@H](O)[C@H](C)O1 [daunorubicinol] here?
Answer: about 27 hours

Question: Which Cell count ([4]; IFN-γ 25 U/ml) does the source give for “IFN-γ: Interferon gamma, cytokine that induces iNOS” here?
Answer: 51 × 10^4

Question: And the Cell count ([4]; IFN-γ 50 U/ml)?
Answer: 52 × 10^4

Question: What about the Cell count ([5]; IFN-γ 25 U/ml) of the same compound?
Answer: 254 × 10^4

Question: What about the Cell count ([5]; IFN-γ 50 U/ml) of the same compound?
Answer: 258 × 10^4

Question: And the “Nitrite (NO production)” value ([6]; IFN-γ 25 U/ml, alone or with 4HPR 1 μM as labelled, 5 days)?
Answer: 7.1 ± 3.3 μM Nitrite /1 × 10^6 cells

Question: And the “Nitrite (NO production)” value ([6]; IFN-γ 50 U/ml, alone or with 4HPR 1 μM as labelled, 5 days)?
Answer: 6.6 ± 0.5 μM Nitrite /1 × 10^6 cells

Question: What about the “Nitrite (NO production)” value ([7]; IFN-γ 25 U/ml) of the same compound?
Answer: 28.3 ± 4.1 μM Nitrite /1 × 10^6 cells

Question: And the “Nitrite (NO production)” value ([7]; IFN-γ 50 U/ml)?
Answer: 24.4 ± 0.4 μM Nitrite /1 × 10^6 cells

Question: With O=C(O)c1ccc2cc(-c3ccc(O)c(C45CC6CC(CC(C6)C4)C5)c3)ccc2c1 [CD437] as the compound, how does the IC50 ([8]; cotreatment with CsA, concentration not marked, read-out: IC50 With CsA) read?
Answer: 358 nM

Question: What about the IC50 [8, 12] of the same compound?
Answer: 287 nM

Question: What about the “increase of iNOS production of NO in the presence of cyclosporin A” value [6] of the same compound?
Answer: not indicated

Question: And the “Nitrite (NO production)” value [6, 13]?
Answer: 71.8 μM Nitrite /1 × 10^6 cells

Question: And the IC50 ([9]; cotreatment with CsA 2 μg/ml, read-out: IC50 With CsA)?
Answer: 197000 nM

Question: What about the IC50 ([9]; cotreatment with CsA 4 μg/ml, read-out: IC50 With CsA) of the same compound?
Answer: 1190 nM

Question: What about the IC50 [9, 12] of the same compound?
Answer: 1580 nM

Question: And the “Nitrite (NO production)” value [10]?
Answer: 59.3 μM Nitrite /1 × 10^6 cells

Question: Which results are given for O=NN(CCCl)C(=O)NC1CCCCC1 [Lomustine, 1-(2-chloro-ethyl)-3-cyclohexyl-l nitrosourea]?
Answer: radioactivity excreted in the form of degradation products within 24 hours ([3]; oral radioactive lomustine, about 30 mg/m^2 to 100 mg/m^2): about half; serum half-life of the metabolites ([3]; oral radioactive lomustine): about 16 hours to about 2 days

Question: With CC[C@]1(O)C[C@@H]2CN(CCc3c([nH]c4ccccc34)[C@@](C(=O)OC)(c3cc4c(cc3OC)N(C)[C@H]3[C@@](O)(C(=O)OC)[C@H](OC(C)=O)[C@]5(CC)C=CCN6CC[C@]43[C@@H]65)C2)C1 [vinblastine] as the compound, how does the “administered dose recovered in the feces after biliary excretion” value ([3]; in vivo) read?
Answer: about 10%

Question: What about the “half-life of disappearance from plasma after distribution (first)” value ([3]; intravenous injection) of the same compound?
Answer: approximately 1 hours

Question: And the “half-life of disappearance from plasma after distribution (second)” value ([3]; intravenous injection)?
Answer: ~72000 s

Question: With COc1cccc2c1C(=O)c1c(O)c3c(c(O)c1C2=O)C[C@@](O)(C(C)=O)C[C@@H]3O[C@H]1C[C@H](N)[C@H](O)[C@H](C)O1 [Daunorubicin, 5,12-Naphthacenedione, (8S-cis)-8-acetyl-10-[(3-amino-2,3,6-trideoxy-a-L-lyxo-hexanopyranosyl)oxy]-7,8,9,10-tetrahydro-6,8,11-trihydroxy-10-methoxy-, hydrochloride] as the compound, how does the “oral / gastrointestinal absorption” value ([3]; in vivo) read?
Answer: Oral absorption is poor

Question: And the elimination half-life ([3]; in vivo)?
Answer: about 19 hours

Question: What about the “secreted into the bile” value ([3]; in vivo) of the same compound?
Answer: about 40%

Question: With CC[C@]1(O)C[C@H]2CN(CCc3c([nH]c4ccccc34)[C@@](C(=O)OC)(c3cc4c(cc3OC)N(C=O)[C@H]3[C@@](O)(C(=O)OC)[C@H](OC(C)=O)[C@]5(CC)C=CCN6CC[C@]43[C@@H]65)C2)C1 [vincristine] as the compound, how does the “terminal half-life (clearance from plasma)” value ([3]; in vivo) read?
Answer: about 24 hours

Question: For CS(=O)(=O)OCCCCOS(C)(=O)=O [Busulfan, 1,4-butanediol dimethanesulfonate], which “adults obtaining hematologic remission with regression or stabilization of organomegaly” value ([1]; previously untreated chronic myelogenous leukemia) is on record?
Answer: Approximately 90%

Question: What does the source list for COc1cccc2c1C(=O)c1c(O)c3c(c(O)c1C2=O)C[C@@](O)(C(=O)CO)C[C@@H]3O[C@H]1C[C@H](N)[C@H](O)[C@H](C)O1 [Doxorubicin, 5,12-Naphthacenedione, (8s-cis)-10-[(3-amino-2,3,6-trideoxy-a-L-lyxo-hexopyranosyl)oxy]-7,8,9,1 0-tetrahydro-6,8,11-trihydroxy-8-(hydroxyacetyl)-1-methoxy-hydrochloride]?
Answer: oral / gastrointestinal absorption ([3]; in vivo): absorbed poorly; elimination half-life ([3]; in vivo): about 30 hours

Question: For N.N.[Cl][Pt][Cl] [Cisplatin], which “oral / gastrointestinal absorption” value ([3]; in vivo) is on record?
Answer: not absorbed orally

Question: For CC1=C(/C=C/C(C)=C/C=C/C(C)=C/C(=O)O)C(C)(C)CCC1 [ATRA, all-trans-retinoic acid], which IC50 ([8]; Homo sapiens, MCF7, cotreatment with CsA, concentration not marked, read-out: IC50 With CsA) is on record?
Answer: 287 nM

Question: What about the IC50 ([8]; Homo sapiens, MCF7, without cyclosporin A, read-out: IC50 Without CsA) of the same compound?
Answer: 288 nM

Question: What about the “increase of iNOS production of NO in the presence of cyclosporin A” value [6] of the same compound?
Answer: not indicated

Question: What about the “Nitrite (NO production)” value [6, 13] of the same compound?
Answer: 15.1 μM Nitrite /1 × 10^6 cells

Question: What about the “Nitrite (NO production)” value [10] of the same compound?
Answer: 7.1 μM Nitrite /1 × 10^6 cells
